The results in this text go back to the OligoGym collection.

HELM strings list units from the 5' end as sugar, base in round brackets, then linkage (d deoxyribose, r ribose, m 2'-O-methyl, p phosphodiester). Strings are as the collection lists them; they lack the last nucleoside at the 3' end of the tested compound. [moe] = 2'-O-(2-methoxyethyl) (MOE); [sp] = phosphorothioate linkage; [m5C] = 5-methylcytosine

This series has as its target ATXN2. Put plainly: mouse, dose not given. Conditions: ASO.

“RNA1{[moe](T)[sp].[moe](G)p.[moe](T)p.[moe](T)p.[moe]([m5C])p.d(T)[sp].d(T)[sp].d([m5C])[sp].d([m5C])[sp].d(A)[sp].d(A)[sp].d(T)[sp].d(T)[sp].d(T)[sp].d([m5C])[sp].[moe](A)p.[moe](G)p.[moe](A)[sp].[moe]([m5C])}$$$$ (last 3' nucleoside missing)” gave a 3 h FOB score of 0 score 0-7.

For “RNA1{[moe](G)[sp].[moe](T)p.[moe](G)p.[moe](G)p.[moe]([m5C])p.d(T)[sp].d(T)[sp].d(T)[sp].d(A)[sp].d(A)[sp].d(A)[sp].d(A)[sp].d(A)[sp].d([m5C])[sp].d(T)[sp].[moe](A)p.[moe](G)p.[moe](G)[sp].[moe](T)}$$$$ (last 3' nucleoside missing)”, the 3 h FOB score turned out to be 0 score 0-7.

For “RNA1{[moe](A)[sp].[moe](A)p.[moe]([m5C])p.[moe](A)p.[moe](G)p.d([m5C])[sp].d(T)[sp].d([m5C])[sp].d(T)[sp].d(G)[sp].d(T)[sp].d(T)[sp].d([m5C])[sp].d(G)[sp].d(A)[sp].[moe](T)p.[moe](G)p.[moe]([m5C])[sp].[moe](A)}$$$$ (last 3' nucleoside missing)”, the 3 h FOB score turned out to be 6 score 0-7.

Substance “RNA1{[moe](G)[sp].[moe](A)p.[moe](T)p.[moe](T)p.[moe]([m5C])[sp].d(T)[sp].d(G)[sp].d(T)[sp].d(A)[sp].d([m5C])[sp].d(T)[sp].d(T)[sp].d(T)[sp].[moe](T)p.[moe]([m5C])p.[moe](T)[sp].[moe]([m5C])}$$$$ (last 3' nucleoside missing)” displayed a 3 h FOB score of 1 score 0-7.

“RNA1{[moe](G)[sp].[moe](T)p.[moe](G)p.[moe](T)p.[moe](T)p.d(T)[sp].d(A)[sp].d(A)[sp].d(T)[sp].d(T)[sp].d(T)[sp].d(G)[sp].d(T)[sp].d(A)[sp].d(A)[sp].[moe]([m5C])p.[moe](T)p.[moe](A)[sp].[moe](G)}$$$$ (last 3' nucleoside missing)”: the 3 h FOB score is 4 score 0-7.

In turn, “RNA1{[moe](T)[sp].[moe](A)p.[moe]([m5C])p.[moe](T)p.[moe](G)[sp].d(T)[sp].d(T)[sp].d(T)[sp].d([m5C])[sp].d(G)[sp].d(A)[sp].d([m5C])[sp].d([m5C])[sp].[moe](T)p.[moe]([m5C])p.[moe](T)[sp].[moe](G)}$$$$ (last 3' nucleoside missing)” returned a 3 h FOB score of 4.75 score 0-7.

For the substance “RNA1{[moe](T)[sp].[moe](A)p.[moe](G)p.[moe]([m5C])p.[moe](A)p.d([m5C])[sp].d(T)[sp].d(T)[sp].d(G)[sp].d(G)[sp].d(T)[sp].d(T)[sp].d([m5C])[sp].d(A)[sp].d(A)[sp].[moe](T)p.[moe](T)p.[moe](T)[sp].[moe](T)}$$$$ (last 3' nucleoside missing)”, the 3 h FOB score amounted to 6 score 0-7.

“RNA1{[moe]([m5C])[sp].[moe](A)p.[moe](G)p.[moe]([m5C])p.[moe](T)p.d([m5C])[sp].d(T)[sp].d(G)[sp].d(T)[sp].d(T)[sp].d([m5C])[sp].d(G)[sp].d(A)[sp].d(T)[sp].d(G)[sp].[moe]([m5C])p.[moe](A)p.[moe](G)[sp].[moe](G)}$$$$ (last 3' nucleoside missing)” gave a 3 h FOB score of 6.25 score 0-7.

For the substance “RNA1{[moe]([m5C])[sp].[moe](T)p.[moe]([m5C])p.[moe]([m5C])p.[moe](T)p.d(A)[sp].d(T)[sp].d([m5C])[sp].d(A)[sp].d(T)[sp].d([m5C])[sp].d(A)[sp].d(T)[sp].d(T)[sp].d(T)[sp].[moe](T)p.[moe]([m5C])p.[moe]([m5C])[sp].[moe](A)}$$$$ (last 3' nucleoside missing)”, the 3 h FOB score came out at 1 score 0-7.

With “RNA1{[moe](T)[sp].[moe](T)p.[moe]([m5C])p.[moe](T)p.[moe]([m5C])[sp].d(T)[sp].d(A)[sp].d(T)[sp].d(T)[sp].d(T)[sp].d([m5C])[sp].d(T)[sp].d(T)[sp].d(T)[sp].d(G)[sp].[moe](T)p.[moe]([m5C])p.[moe]([m5C])[sp].[moe](A)}$$$$ (last 3' nucleoside missing)”, the 3 h FOB score turned out to be 4 score 0-7.

In turn, “RNA1{[moe]([m5C])[sp].[moe](T)p.[moe]([m5C])p.[moe](T)p.[moe](A)[sp].d(T)[sp].d(T)[sp].d(T)[sp].d([m5C])[sp].d(T)[sp].d(T)[sp].d(T)[sp].d(G)[sp].[moe](T)p.[moe]([m5C])p.[moe]([m5C])[sp].[moe](A)}$$$$ (last 3' nucleoside missing)” registered a 3 h FOB score of 3.5 score 0-7.

Turning to “RNA1{[moe](T)[sp].[moe](T)p.[moe](G)p.[moe](T)p.[moe](T)p.d(A)[sp].d([m5C])[sp].d(T)[sp].d(G)[sp].d(T)[sp].d(T)[sp].d(T)[sp].d([m5C])[sp].d(G)[sp].d(A)[sp].[moe]([m5C])p.[moe]([m5C])p.[moe](T)[sp].[moe]([m5C])}$$$$ (last 3' nucleoside missing)”, the 3 h FOB score turned out to be 4.25 score 0-7.

Take “RNA1{[moe](A)[sp].[moe]([m5C])p.[moe](A)p.[moe](T)p.[moe](A)p.d(G)[sp].d(G)[sp].d(T)[sp].d(T)[sp].d(A)[sp].d(G)[sp].d(A)[sp].d(A)[sp].d(T)[sp].d(T)[sp].[moe](T)p.[moe](T)p.[moe]([m5C])[sp].[moe]([m5C])}$$$$ (last 3' nucleoside missing)”: the 3 h FOB score stood at 1 score 0-7.

Take “RNA1{[moe](A)[sp].[moe](A)p.[moe]([m5C])p.[moe](G)p.[moe](G)p.d(A)[sp].d(G)[sp].d(T)[sp].d([m5C])[sp].d(A)[sp].d([m5C])[sp].d(T)[sp].d(G)[sp].d(T)[sp].d(T)[sp].[moe](T)p.[moe](T)p.[moe](T)[sp].[moe]([m5C])}$$$$ (last 3' nucleoside missing)”: the 3 h FOB score is 5.5 score 0-7.

Substance “RNA1{[moe](T)[sp].[moe](G)p.[moe](T)p.[moe](G)p.[moe](T)p.d(A)[sp].d(T)[sp].d(T)[sp].d(T)[sp].d(T)[sp].d(T)[sp].d([m5C])[sp].d(T)[sp].d(T)[sp].d([m5C])[sp].[moe]([m5C])p.[moe](T)p.[moe]([m5C])[sp].[moe](A)}$$$$ (last 3' nucleoside missing)” had a 3 h FOB score of 0.25 score 0-7.

As for “RNA1{[moe](T)[sp].[moe](G)p.[moe]([m5C])p.[moe](T)p.[moe](A)[sp].d(A)[sp].d([m5C])[sp].d(T)[sp].d(G)[sp].d(G)[sp].d(T)[sp].d(T)[sp].d(T)[sp].[moe](G)p.[moe]([m5C])p.[moe]([m5C])[sp].[moe]([m5C])}$$$$ (last 3' nucleoside missing)”, the 3 h FOB score stood at 6 score 0-7.

As to “RNA1{[moe](A)[sp].[moe](T)p.[moe]([m5C])p.[moe](T)p.[moe](A)p.d(T)[sp].d(G)[sp].d(A)[sp].d(T)[sp].d(T)[sp].d(T)[sp].d(T)[sp].d([m5C])[sp].d(A)[sp].d(T)[sp].[moe]([m5C])p.[moe](A)p.[moe](G)[sp].[moe](G)}$$$$ (last 3' nucleoside missing)”, the 3 h FOB score is 0 score 0-7.

With “RNA1{[moe](T)[sp].[moe](T)p.[moe](A)p.[moe]([m5C])p.[moe](T)p.d(T)[sp].d([m5C])[sp].d(T)[sp].d(T)[sp].d(T)[sp].d(T)[sp].d(G)[sp].d([m5C])[sp].d(T)[sp].d(A)[sp].[moe](G)p.[moe]([m5C])p.[moe](T)[sp].[moe](G)}$$$$ (last 3' nucleoside missing)”, the 3 h FOB score was determined as 1 score 0-7.
